# Experiments:
# Halomonas aquamarina [1] = experiment: Bacterial adhesion assay (crystal violet, OD 595 nm); format: cell-based; details: Vreelandella aquamarina, 48 h incubation, 10–0.01 μg/mL tested, read-out: MIC against the adhesion of marine bacteria, H.a.
# Source text: (§1) Cyprid larvae of B. improvisus were reared in a laboratory cultivating system at Tjärnö Marine Biological Laboratory, University of Gothenburg, Sweden, as previously described by Berntsson et al. ([2000]). Four pure, but non-axenic, marine microalgae (obtained from Algobank, Caen, France) and 10 marine bacterial strains were used (Table 1) as representative microfoulers. These strains represent fouling species encountered in both estuarine and marine environments (Moodie et al. [2017b]). The bacteria were grown at 26 °C in a marine medium, composed of 0.5% peptone (neutralized bacteriological peptone, Oxoid Ltd.) in filtered (Whatman 1001–270, pore size 11 μm) natural seawater. Microalgae were grown and maintained at 22 °C in F/2 medium.
# (§2) Bacterial strain adhesion and growth were determined according to the methods of Thabard et al. ([2011]). Bacterial suspensions (100-μL aliquots, 2 × 10^8 colony forming units/mL) were aseptically added to the compound containing microplate wells (10–0.01 μg/mL), and the plates were incubated for 48 h at 26 °C. Media only was used as a blank. Bacterial growth was monitored spectroscopically at 630 nm. The minimal inhibitory concentration (MIC) for bacterial growth was defined as the lowest concentration which results in a decrease in OD. After 48-h incubation time, the bacterial adhesion assay was conducted by emptying the wells and rinsing with sterile seawater (100 μL) to remove non-attached cells, and air-drying at room temperature. The residual bacterial biofilm was stained with aqueous crystal violet (100 μL, 0.3% v/v) and the OD measured at 595 nm (Sonak and Bhosle [1995]). […] If inhibition was observed, toxicity tests were conducted. The well contents were transferred into a flask of fresh media, and growth was measured after 5 days of additional incubation. The mode of action was deemed biostatic if an increase in OD was measured at 595 nm (Moodie et al. [2017a]).
# Vibrio aestuarianus [2] = experiment: as above; format: cell-based; details: 48 h, read-out: MIC against the adhesion of marine bacteria, V.a.
# Source text: as §1, §2
# Vibrio carchariae [3] = experiment: as above; format: cell-based; details: Vibrio harveyi, 48 h, read-out: MIC against the adhesion of marine bacteria, V.c.
# Source text: as §1, §2
# Vibrio harveyi [4] = experiment: as above; format: cell-based; details: 48 h, read-out: MIC against the adhesion of marine bacteria, V.h.
# Source text: as §1, §2
# marine bacteria = experiment: Bacterial adhesion assay, whole panel of ten strains; format: cell-based, 10 marine bacterial strains; details: tested up to 10 μg/mL, active = MIC of 10 μg/mL or below
# Source text: as §1, §2
# Halomonas aquamarina [5] = experiment: Bacterial growth assay (OD 630 nm); format: cell-based; details: Vreelandella aquamarina, 48 h incubation, 10–0.01 μg/mL tested, read-out: MIC against the growth of marine bacteria, H.a.
# Source text: as §1, §2
# [6] = test system: Pseudoalteromonas elyakovii; experiment: Bacterial growth assay (OD 630 nm); format: cell-based; details: 48 h incubation, 10–0.01 μg/mL tested, read-out: MIC against the growth of marine bacteria, P.e.
# Source text: as §1, §2
# Roseobacter litoralis = experiment: Bacterial growth assay (OD 630 nm); format: cell-based; details: 48 h incubation, 10–0.01 μg/mL tested, read-out: MIC against the growth of marine bacteria, R.l.
# Source text: as §1, §2
# Shewanella putrefaciens = experiment: Bacterial growth assay (OD 630 nm); format: cell-based; details: 48 h incubation, 10–0.01 μg/mL tested, read-out: MIC against the growth of marine bacteria, S.p.
# Source text: as §1, §2
# Vibrio aestuarianus [7] = experiment: Bacterial growth assay (OD 630 nm); format: cell-based; details: 48 h incubation, 10–0.01 μg/mL tested, read-out: MIC against the growth of marine bacteria, V.a.
# Source text: as §1, §2
# Vibrio carchariae [8] = experiment: Bacterial growth assay (OD 630 nm); format: cell-based; details: Vibrio harveyi, 48 h incubation, 10–0.01 μg/mL tested, read-out: MIC against the growth of marine bacteria, V.c.
# Source text: as §1, §2
# Vibrio harveyi [9] = experiment: Bacterial growth assay (OD 630 nm); format: cell-based; details: 48 h incubation, 10–0.01 μg/mL tested, read-out: MIC against the growth of marine bacteria, V.h.
# Source text: as §1, §2
# Vibrio natriegens = experiment: Bacterial growth assay (OD 630 nm); format: cell-based; details: 48 h incubation, 10–0.01 μg/mL tested, read-out: MIC against the growth of marine bacteria, V.n.
# Source text: as §1, §2
# Vibrio proteolyticus = experiment: Bacterial growth assay (OD 630 nm); format: cell-based; details: 48 h incubation, 10–0.01 μg/mL tested, read-out: MIC against the growth of marine bacteria, V.p.
# Source text: as §1, §2
# Cylindrotheca closterium = experiment: Microalgal growth assay (chlorophyll a); format: cell-based; details: 120 h, 5 days incubation, 10–0.01 μg/mL tested, read-out: MIC against the growth (G) of microalgae, C. closterium
# Source text: as §1
# (§3) Microplates containing the compounds in ranging concentrations (10–0.01 μg/mL) were prepared from MeOH stock solutions as previously described (Trepos et al. [2014]; Moodie et al. [2017a]). Microalgal stock solutions were prepared using the chlorophyll analysis methodology of Chambers et al. ([2011]). The pretreated microplate wells were treated with 100 μL of the algal stock solutions (0.1 mg chlorophyll a/mL). The plates were then incubated for 5 days at 20 °C under constant light exposure (140 μmol m^−2 s^−1). Both microalgal adhesion and growth inhibition were measured. Growth was determined by analysis of liberated chlorophyll a after centrifugation and methanol addition. Chlorophyll a was quantified fluorometrically. MIC value for algal growth was defined as the lowest concentration yielding a decrease in chlorophyll a content. Microalgal adhesion was determined in an analogous manner where the non-attached algal cells were removed prior to methanol addition (100 μL), releasing chlorophyll a from the remaining algal biofilms. The MIC for adhesion was defined as the lowest compound concentration causing a reduction in […]. Toxicity experiments were performed in an analogous manner to those described for the bacterial assays.
# Halamphora coffeaeformis = experiment: Microalgal growth assay (chlorophyll a); format: cell-based; details: Halamphora coffeiformis, 120 h, 5 days incubation, 10–0.01 μg/mL tested, read-out: MIC against the growth (G) of microalgae, H. coffeaformis
# Source text: as §1, §3
# [10] = test system: Pleurochrysis roscoffensis; experiment: Microalgal growth assay (chlorophyll a); format: cell-based; details: Chrysotila roscoffensis, 120 h, 5 days incubation, 10–0.01 μg/mL tested, read-out: MIC against the growth (G) of microalgae, P. roscoffensis
# Source text: as §1, §3
# Porphyridium purpureum = experiment: Microalgal growth assay (chlorophyll a); format: cell-based; details: 120 h, 5 days incubation, 10–0.01 μg/mL tested, read-out: MIC against the growth (G) of microalgae, P. purpureum
# Source text: as §1, §3
# [11] = test system: Balanus improvisus cyprid larvae; experiment: whole plant or invertebrate; format: in vivo
# Source text: as §1
# Stock solutions of compounds in DMSO were serially diluted in untreated polystyrene Petri dishes containing 10 mL of filtered (0.2 μm) seawater, affording final concentrations ranging from 0.1 to 10 μg/mL. Freshly molted balanide cyprids (18–22) were added to each Petri dish and incubated at ambient temperature (20–25 °C) for 5 days. Cyprid metamorphosis was assessed using a dissecting microscope where the numbers of juvenile settled, free-swimming, and dead cyprids were noted. Initial compound screening was conducted at 5 μg/mL, and full IC50 determination was performed only on compounds displaying > 50% inhibition at that concentration. The IC50 was defined as the concentration preventing 50% of the cyprid settlement on the Petri dish surface. Each concentration was replicated four times (n = 4), and dishes containing 0.1% of DMSO were used as negative controls. The commercial AF agent Sea-nine™ was employed as a positive control.
# [12] = test system: Balanus improvisus cyprid larvae; details: B. improvisus larvae settlement; ref Ortlepp et al. [2007]; cited from earlier work
# [13] = test system: blue mussel phenoloxidase; set-up: method as in Bayer et al. [2011]; details: ref Bayer et al. [2011]; cited from earlier work
structure (smiles),measurement,setting,value
"COc1cc(CC(=NO)c2ccc(OC)c(OC)c2)ccc1O [Compound 14, 1-(3,4-dimethoxyphenyl)-1-hydroxyimino-2-(3’-methoxy-4’-hydroxyphenyl)-ethane]",MIC,Halomonas aquamarina [1],10 µg/mL
same,MIC,Vibrio aestuarianus [2],10 µg/mL
same,MIC,Vibrio carchariae [3],10 µg/mL
same,MIC,Vibrio harveyi [4],10 µg/mL
same,MIC / activity against the adhesion of all bacteria tested,marine bacteria,displayed inhibitory activities
same,MIC,Halomonas aquamarina [5],> 10 µg/mL
same,MIC,[6],> 10 µg/mL
same,MIC,Roseobacter litoralis,> 10 µg/mL
same,MIC,Shewanella putrefaciens,10 µg/mL
same,MIC,Vibrio aestuarianus [7],> 10 µg/mL
same,MIC,Vibrio carchariae [8],> 10 µg/mL
same,MIC,Vibrio harveyi [9],> 10 µg/mL
same,MIC,Vibrio natriegens,> 10 µg/mL
same,MIC,Vibrio proteolyticus,> 10 µg/mL
same,MIC,Cylindrotheca closterium,10 µg/mL
same,MIC,Halamphora coffeaeformis,10 µg/mL
same,MIC,[10],10 µg/mL
same,MIC,Porphyridium purpureum,> 10 µg/mL
same,IC50,"[11]; Amphibalanus improvisus, 120 h, read-out: IC50 (cyprid settlement inhibition)",1 µg/mL
same,Toxicity (%) (dead cyprids),"[11]; Balanus improvisus, in vivo, 5 days, 5 μg/mL",4.8%
"O=C(NCCc1ccc(O)cc1)C(Cc1ccc(O)cc1)=NO [Compound 4, debromohemibastadin-1]",minimum significant dose to inhibit settlement,[12],100 µM
same,"inhibition of phenoloxidase, in words",[13],inhibit
